Test results from US20140073602A9, “NITRIC OXIDE DELIVERING HYDROXYALKYL STARCH DERIVATIVES” (FRESENIUS KABI DEUTSCHLAND GMBH, priority 2010, published 2014).

Tested on: phenylephrine-precontracted aortic rings from rats
Test: Vasodilatory influence in isolated rat aortic ring preparations
Details: first set; 1 microM
Experimental: The aim of the experiments was to test for the vasodilatory influence of SNO-HES in isolated rat aortic ring preparations. Isolated aortic rings from rats were precontracted by phenylephrine. SNO-HES-induced relaxations were determined after defined incubation periods. In order to completely relax the aorta and to define the 100% relaxation level, papaverine was applied at the end of an experiment. Two sets of experiments were performed:
Aortic ring preparations from adult rats (male, Lewis, 278-307 g; Janvier, St Berthevin Cedex, France) were used to perform the experiments.
All HES derivatives were supplied by Fresenius-Kabi Deutschland GmbH. SNO-HES derivatives CNO1 and CNO8 (both prepared according to GP3, table 8) were tested alongside with their precursor SH-HES (D31, prepared according to GP2.1 and GP2.2, table 6) and the unmodified HES (HES17, table 1). The first set of experiments was performed with SNO-HES derivative CNO1, the second set with CNO8.
Physiological solution contained (in mM) NaCl 120, KCl 5.5, MgSO4 1.2, KH2PO4 1.2, CaCl2 2.5, NaHCO3 25 and glucose 11. The solution was maintained at 37° C. and gassed with carbogen (95% O2+5% CO2 (v/v)). Phenylephrine (batch 050M1663) and papaverine (batch 010M1565) purchased from Sigma (Munich, Germany) were dissolved in distilled water to prepare stocks of 1 mM and 50 mM, respectively. […]

Q: `N[C@@H](CCC(=O)N[C@@H](CSN=O)C(=O)NCC(=O)O)C(=O)O` [GSNO, S-nitrosogluthatione] was tested. Which “Relaxation of phenylephrine-contracted aortic rings (in words)” value did it give?
A: immediately and completely relaxed
